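48-hour exposure; five concentrations; linearly interpolated endpoints. GI50 = concentration required for 50% inhibition of growth. TGI: total growth inhibition.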
Tests used:
Experiment in all cases: NCI-60 cell line screen, 48 h
[1] = tested on: 786-0 renal
[2] = tested on: A498 renal
[3] = tested on: A549 NSCLC
[4] = tested on: ACHN renal
[5] = tested on: CAKI-1 renal
[6] = tested on: CCRF-CEM leukemia
[7] = tested on: COLO 205 colon
[8] = tested on: DU-145 prostate
[9] = tested on: EKVX NSCLC
[10] = tested on: HCC-2998 colon
[11] = tested on: HCT-116 colon
[12] = tested on: HCT-15 colon
[13] = tested on: HL-60(TB) leukemia
[14] = tested on: HOP-62 NSCLC
[15] = tested on: HS 578T breast
[16] = tested on: HT29 colon
[17] = tested on: K-562 leukemia
[18] = tested on: KM12 colon
[19] = tested on: LOX IMVI melanoma
[20] = tested on: M14 melanoma
[21] = tested on: MALME-3M melanoma
[22] = tested on: MCF7 breast
[23] = tested on: MDA-MB-231 breast
[24] = tested on: MDA-MB-435
[25] = tested on: MOLT-4 leukemia
[26] = tested on: NCI-H226 lung
[27] = tested on: NCI-H23 lung
[28] = tested on: NCI-H460 lung
[29] = tested on: NCI-H522 lung
[30] = tested on: NCI/ADR-RES ovarian
[31] = tested on: OVCAR-3 ovarian
[32] = tested on: OVCAR-4 ovarian
[33] = tested on: OVCAR-5 ovarian
[34] = tested on: OVCAR-8 ovarian
[35] = tested on: PC-3 prostate
[36] = tested on: RPMI-8226 leukemia
[37] = tested on: RXF 393 renal
[38] = tested on: SF-268 CNS
[39] = tested on: SF-295 CNS
[40] = tested on: SF-539 CNS
[41] = tested on: SK-MEL-2 melanoma
[42] = tested on: SK-MEL-28 melanoma
[43] = tested on: SK-MEL-5 melanoma
[44] = tested on: SK-OV-3 ovarian
[45] = tested on: SN12C renal
[46] = tested on: SNB-19 CNS
[47] = tested on: SNB-75 CNS
[48] = tested on: SW-620 colon
[49] = tested on: T-47D breast
[50] = tested on: TK-10 renal
[51] = tested on: U251 CNS
[52] = tested on: UACC-257 melanoma
[53] = tested on: UACC-62 melanoma
[54] = tested on: UO-31 renal
[55] = tested on: BT-549 breast
[56] = tested on: HOP-92 NSCLC
[57] = tested on: IGROV1 ovarian

C=C(CNC(=O)Nc1ccc(-c2ccccc2)cc1)c1ccc(C(=O)Nc2ccccc2N)cc1
GI50 [1]: > 100 µM | TGI [1]: > 100 µM | GI50 [2]: 37.4 µM | TGI [2]: > 100 µM | GI50 [3]: > 100 µM | TGI [3]: > 100 µM | GI50 [4]: > 100 µM | TGI [4]: > 100 µM | GI50 [5]: > 100 µM | TGI [5]: > 100 µM | GI50 [6]: 7.32 µM | TGI [6]: > 100 µM | GI50 [7]: > 100 µM | TGI [7]: > 100 µM | GI50 [8]: 27.7 µM | TGI [8]: > 100 µM | GI50 [9]: > 100 µM | TGI [9]: > 100 µM | GI50 [10]: > 100 µM | TGI [10]: > 100 µM | GI50 [11]: > 100 µM | TGI [11]: > 100 µM | GI50 [12]: 70.4 µM | TGI [12]: > 100 µM | GI50 [13]: 89.7 µM | TGI [13]: > 100 µM | GI50 [14]: 49.1 µM | TGI [14]: > 100 µM | GI50 [15]: 81.7 µM | TGI [15]: > 100 µM | GI50 [16]: > 100 µM | TGI [16]: > 100 µM | GI50 [17]: 40.6 µM | TGI [17]: > 100 µM | GI50 [18]: 10.8 µM | TGI [18]: > 100 µM | GI50 [19]: > 100 µM | TGI [19]: > 100 µM | GI50 [20]: 90.9 µM | TGI [20]: > 100 µM | GI50 [21]: 53.7 µM | TGI [21]: > 100 µM | GI50 [22]: > 100 µM | TGI [22]: > 100 µM | GI50 [23]: 31.1 µM | TGI [23]: > 100 µM | GI50 [24]: 89.8 µM | TGI [24]: > 100 µM | GI50 [25]: 30.5 µM | TGI [25]: > 100 µM | GI50 [26]: > 100 µM | TGI [26]: > 100 µM | GI50 [27]: 85.3 µM | TGI [27]: > 100 µM | GI50 [28]: > 100 µM | TGI [28]: > 100 µM | GI50 [29]: 15 µM | TGI [29]: 99 µM | GI50 [30]: 58.3 µM | TGI [30]: > 100 µM | GI50 [31]: > 100 µM | TGI [31]: > 100 µM | GI50 [32]: > 100 µM | TGI [32]: > 100 µM | GI50 [33]: > 100 µM | TGI [33]: > 100 µM | GI50 [34]: 58.9 µM | TGI [34]: > 100 µM | GI50 [35]: 51.5 µM | TGI [35]: > 100 µM | GI50 [36]: 20.4 µM | TGI [36]: > 100 µM | GI50 [37]: 23.7 µM | TGI [37]: 59 µM | GI50 [38]: > 100 µM | TGI [38]: > 100 µM | GI50 [39]: > 100 µM | TGI [39]: > 100 µM | GI50 [40]: > 100 µM | TGI [40]: > 100 µM | GI50 [41]: > 100 µM | TGI [41]: > 100 µM | GI50 [42]: 48.3 µM | TGI [42]: > 100 µM | GI50 [43]: 94.3 µM | TGI [43]: > 100 µM | GI50 [44]: 25.9 µM | TGI [44]: 74.8 µM | GI50 [45]: > 100 µM | TGI [45]: > 100 µM | GI50 [46]: 98.7 µM | TGI [46]: > 100 µM | GI50 [47]: 30.6 µM | TGI [47]: 96.2 µM | GI50 [48]: > 100 µM | TGI [48]: > 100 µM | GI50 [49]: > 100 µM | TGI [49]: > 100 µM | GI50 [50]: > 100 µM | TGI [50]: > 100 µM | GI50 [51]: 47.9 µM | TGI [51]: > 100 µM | GI50 [52]: > 100 µM | TGI [52]: > 100 µM | GI50 [53]: > 100 µM | TGI [53]: > 100 µM | GI50 [54]: > 100 µM | TGI [54]: > 100 µM

Cc1[nH]ncc1-c1cc2nc(C3CC4CCN3CC4)[nH]c(=O)c2s1 (stereo not drawn)
GI50 [1]: 2.92 µM | TGI [1]: > 100 µM | GI50 [2]: 1.98 µM | TGI [2]: 8.72 µM | GI50 [3]: 2.67 µM | TGI [3]: > 100 µM | GI50 [4]: 1.88 µM | TGI [4]: > 100 µM | GI50 [55]: 2.59 µM | TGI [55]: 29.6 µM | GI50 [5]: 2.43 µM | TGI [5]: > 100 µM | GI50 [6]: 2.36 µM | TGI [6]: > 100 µM | GI50 [8]: 3 µM | TGI [8]: > 100 µM | GI50 [9]: 4.3 µM | TGI [9]: 90.2 µM | GI50 [10]: 7.09 µM | TGI [10]: > 100 µM | GI50 [11]: 1.16 µM | TGI [11]: > 100 µM | GI50 [12]: 2.44 µM | TGI [12]: > 100 µM | GI50 [13]: 2.06 µM | TGI [13]: 6.15 µM | GI50 [14]: 2.83 µM | TGI [14]: > 100 µM | GI50 [56]: 5.5 µM | TGI [56]: > 100 µM | GI50 [15]: 3.87 µM | TGI [15]: > 100 µM | GI50 [16]: 3.85 µM | TGI [16]: > 100 µM | GI50 [57]: 3.47 µM | TGI [57]: > 100 µM | GI50 [17]: 6.54 µM | TGI [17]: > 100 µM | GI50 [18]: 4.07 µM | TGI [18]: > 100 µM | GI50 [19]: 1.46 µM | TGI [19]: 21.1 µM | GI50 [20]: 4.49 µM | TGI [20]: 83.5 µM | GI50 [21]: 6.02 µM | TGI [21]: 74 µM | GI50 [22]: 2.58 µM | TGI [22]: > 100 µM | GI50 [23]: 4.89 µM | TGI [23]: > 100 µM | GI50 [24]: 4.45 µM | TGI [24]: 30 µM | GI50 [25]: 5.52 µM | TGI [25]: > 100 µM | GI50 [26]: 2.82 µM | TGI [26]: > 100 µM | GI50 [27]: 3.82 µM | TGI [27]: > 100 µM | GI50 [28]: 2.44 µM | TGI [28]: > 100 µM | GI50 [29]: 2.75 µM | TGI [29]: 39.4 µM | GI50 [30]: 11.8 µM | TGI [30]: > 100 µM | GI50 [31]: 3.74 µM | TGI [31]: > 100 µM | GI50 [32]: 9.68 µM | TGI [32]: > 100 µM | GI50 [33]: 3.33 µM | TGI [33]: > 100 µM | GI50 [34]: 3.2 µM | TGI [34]: > 100 µM | GI50 [35]: 4.13 µM | TGI [35]: > 100 µM | GI50 [36]: 18.2 µM | TGI [36]: > 100 µM | GI50 [37]: 2.36 µM | TGI [37]: 5.96 µM | GI50 [38]: 3.8 µM | TGI [38]: > 100 µM | GI50 [39]: 2.88 µM | TGI [39]: > 100 µM | GI50 [40]: 1.47 µM | TGI [40]: 7.74 µM | GI50 [41]: 8.8 µM | TGI [41]: 29.5 µM | GI50 [42]: 4.94 µM | TGI [42]: > 100 µM | GI50 [43]: 2.77 µM | TGI [43]: 52.9 µM | GI50 [44]: 14.5 µM | TGI [44]: > 100 µM | GI50 [45]: 3.31 µM | TGI [45]: > 100 µM | GI50 [46]: 4.78 µM | TGI [46]: > 100 µM | GI50 [47]: 1.01 µM | TGI [47]: 9.55 µM | GI50 [48]: 2.65 µM | TGI [48]: > 100 µM | GI50 [50]: 1.9 µM | TGI [50]: > 100 µM | GI50 [51]: 2.52 µM | TGI [51]: > 100 µM | GI50 [52]: 5.79 µM | TGI [52]: 84 µM | GI50 [53]: 3.28 µM | TGI [53]: 17.6 µM | GI50 [54]: 2.91 µM | TGI [54]: > 100 µM
